In USRE48023E1, “Method for treating vascular-related disease” (EYEGENE INC., priority 2006, dated 2020):

System: mouse retinal angiogenesis
Assay: Mouse model for inducing retinal angiogenesis using oxygen partial pressure, FITC-dextran observation
Type: in vivo
Conditions: for blood leakage (FITC-dextran) / normal angiogenesis (FITC-dextran): administered intraperitoneally after 75% oxygen treatment; for abnormal angiogenesis: treated daily with 1 μg/kg

Row | Substance | blood leakage (FITC-dextran) | normal angiogenesis (FITC-dextran) | abnormal angiogenesis | normal angiogenesis (FITC-dextran) (listed as polypeptide comprising a RAD sequence)
1 | SEQ ID NO: 2: peptide comprising a RGD sequence; sequence not printed in text (GFGRGDSPCA; Peptide Containing RGD Sequence) | blood leakage is reduced | normal angiogenesis is induced | abnormal angiogenesis was not observed | 
2 | SEQ ID NO: 1: peptide comprising a RGD sequence; sequence not printed in text (RGDFV; Peptide Containing RGD Sequence) | blood leakage is reduced | normal angiogenesis is induced | abnormal angiogenesis was not observed | 
3 | echistatin (ECESGPCCRNCKFLKEGTICKRARGDDMDDYCNGLTCDCPRNPHKGPAT; Peptide containing RGD sequence) | blood leakage is reduced | normal angiogenesis is induced | abnormal angiogenesis was not observed | 
4 | SEQ ID NO: 3: polypeptide comprising a sequence RAD, used as the control (RADFV; Peptide Containing RAD Sequence) [reference compound] |  | normal angiogenesis is not induced |  | not also normally formed
5 | kistrin | blood leakage is reduced | normal angiogenesis is induced | abnormal angiogenesis was not observed | 
